The record followed here is ChEMBL document CHEMBL1201862, “PubChem BioAssay data set” (2004).

Assay [1] in a line: cytotoxicity in HEK-293T cells, dose response, cytotoxicity control for TCR NF-kB inhibitor project, luminescence, T-cell screen hits (AID 489026).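 Note: cells exposed to compound about 14 hours before the viability readout.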 Type of assay: functional, cell-based.
The nature of assay [2]: growth suppression of PTEN-null colon cells, dose response, cell-based, HCT116 PTEN knockout (AID 1047).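 Note: HCT116 colon tumor cells with PTEN knocked out; cells exposed to compound for 60 hours before readout; potency for loss of cell viability measured by luminescence.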 The class given is functional.
The target of assay [3] is T1, Histone-lysine N-methyltransferase NSD2 (Homo sapiens, UniProt O96028).
T1 sequence (O96028 whole entry): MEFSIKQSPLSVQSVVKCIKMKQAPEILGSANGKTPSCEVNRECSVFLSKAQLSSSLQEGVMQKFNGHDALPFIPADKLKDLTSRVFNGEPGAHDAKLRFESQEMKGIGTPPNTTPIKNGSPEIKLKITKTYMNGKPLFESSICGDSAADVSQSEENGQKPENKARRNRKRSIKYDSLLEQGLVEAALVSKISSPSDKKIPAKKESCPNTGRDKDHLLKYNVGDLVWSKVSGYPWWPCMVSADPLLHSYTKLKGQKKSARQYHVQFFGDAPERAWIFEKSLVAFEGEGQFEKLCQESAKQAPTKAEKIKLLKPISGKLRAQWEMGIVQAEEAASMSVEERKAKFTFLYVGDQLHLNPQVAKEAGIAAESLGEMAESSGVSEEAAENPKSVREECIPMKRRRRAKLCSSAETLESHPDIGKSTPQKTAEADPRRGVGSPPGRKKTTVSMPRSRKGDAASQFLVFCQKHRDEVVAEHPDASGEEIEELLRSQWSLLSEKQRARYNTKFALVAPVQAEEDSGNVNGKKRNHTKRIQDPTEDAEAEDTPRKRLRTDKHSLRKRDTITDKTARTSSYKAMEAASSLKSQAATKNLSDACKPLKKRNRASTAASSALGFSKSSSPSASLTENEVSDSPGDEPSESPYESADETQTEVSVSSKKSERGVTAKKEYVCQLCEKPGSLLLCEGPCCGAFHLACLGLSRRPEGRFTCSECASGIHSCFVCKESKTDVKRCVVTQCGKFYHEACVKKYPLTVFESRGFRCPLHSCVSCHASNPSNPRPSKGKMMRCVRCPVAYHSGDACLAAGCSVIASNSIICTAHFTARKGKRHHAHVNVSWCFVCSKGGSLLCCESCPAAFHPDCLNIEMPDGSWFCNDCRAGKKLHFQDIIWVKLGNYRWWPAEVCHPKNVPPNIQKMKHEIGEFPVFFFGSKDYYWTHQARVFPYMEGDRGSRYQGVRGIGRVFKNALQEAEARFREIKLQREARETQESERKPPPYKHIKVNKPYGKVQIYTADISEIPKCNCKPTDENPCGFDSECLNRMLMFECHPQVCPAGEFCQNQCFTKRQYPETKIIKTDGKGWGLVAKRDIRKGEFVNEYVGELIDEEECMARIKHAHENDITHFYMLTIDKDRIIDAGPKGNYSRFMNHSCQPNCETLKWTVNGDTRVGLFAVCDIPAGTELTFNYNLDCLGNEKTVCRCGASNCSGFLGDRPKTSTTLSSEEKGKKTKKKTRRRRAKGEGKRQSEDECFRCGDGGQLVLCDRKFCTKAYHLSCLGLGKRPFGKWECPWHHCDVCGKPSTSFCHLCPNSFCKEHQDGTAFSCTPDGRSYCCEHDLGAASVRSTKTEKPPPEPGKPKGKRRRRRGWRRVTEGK
Type of assay: biochemical.

In assay [4] the target is T2, Short transient receptor potential channel 4 (Mus musculus, UniProt Q9QUQ5).
T2 sequence (Q9QUQ5 whole entry): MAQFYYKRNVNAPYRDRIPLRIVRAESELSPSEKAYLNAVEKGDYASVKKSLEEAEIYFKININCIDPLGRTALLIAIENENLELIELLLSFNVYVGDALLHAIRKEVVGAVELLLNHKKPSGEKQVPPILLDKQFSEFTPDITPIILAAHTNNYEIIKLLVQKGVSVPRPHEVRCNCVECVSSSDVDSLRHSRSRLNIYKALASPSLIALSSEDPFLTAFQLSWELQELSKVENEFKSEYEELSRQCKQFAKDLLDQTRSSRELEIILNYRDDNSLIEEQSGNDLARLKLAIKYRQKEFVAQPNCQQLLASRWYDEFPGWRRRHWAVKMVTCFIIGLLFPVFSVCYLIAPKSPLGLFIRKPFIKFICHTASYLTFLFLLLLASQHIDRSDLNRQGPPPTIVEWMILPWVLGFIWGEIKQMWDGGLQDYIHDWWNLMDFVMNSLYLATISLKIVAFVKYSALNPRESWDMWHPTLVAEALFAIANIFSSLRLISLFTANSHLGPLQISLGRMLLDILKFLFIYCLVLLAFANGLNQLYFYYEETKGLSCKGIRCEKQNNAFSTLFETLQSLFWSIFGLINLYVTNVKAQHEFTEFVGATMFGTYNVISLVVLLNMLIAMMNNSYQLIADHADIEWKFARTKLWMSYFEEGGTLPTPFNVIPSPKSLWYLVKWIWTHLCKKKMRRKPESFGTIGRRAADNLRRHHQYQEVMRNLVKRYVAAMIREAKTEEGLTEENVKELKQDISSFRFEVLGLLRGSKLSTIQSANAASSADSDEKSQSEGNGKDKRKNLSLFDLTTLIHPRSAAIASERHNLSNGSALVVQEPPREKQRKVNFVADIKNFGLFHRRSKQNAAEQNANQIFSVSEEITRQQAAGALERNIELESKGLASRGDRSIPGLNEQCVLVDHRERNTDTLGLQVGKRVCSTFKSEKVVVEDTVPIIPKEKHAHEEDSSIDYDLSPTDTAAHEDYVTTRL
Briefly: mouse TRPC4 channel inhibitors, dose response, cell-based, HEK293 TRPC4/mu-opioid, Fluo-4 calcium (AID 434942).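 Note: potency of inhibitors blocking the TRPC4 calcium response.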 The class given is functional.

Assay [5] can be described thus: cytotoxicity toward NIH3T3 fibroblasts, dose response, counter-screen, cell-based, ATP luminescence, mouse fibroblasts (AID 2010).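 Note: cells exposed to compound for about 90 hours before reading.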 Type of assay: functional. In general terms: The purpose of a counterscreen is to sort out artefacts and off-target activity.
Assay [6] concerns the target T3, RNA-binding protein pos-1 (Caenorhabditis elegans, UniProt G5EF15).
T3 sequence (G5EF15 whole entry): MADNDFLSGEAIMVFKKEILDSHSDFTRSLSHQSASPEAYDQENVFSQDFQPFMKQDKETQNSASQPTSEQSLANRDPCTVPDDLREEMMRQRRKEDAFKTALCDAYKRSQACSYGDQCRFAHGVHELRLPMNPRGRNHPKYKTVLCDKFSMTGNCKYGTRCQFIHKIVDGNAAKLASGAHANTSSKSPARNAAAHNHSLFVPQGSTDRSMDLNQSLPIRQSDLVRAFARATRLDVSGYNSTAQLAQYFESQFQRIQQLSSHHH
Kind of assay: inhibitors of POS-1/mex-3 RNA binding, dose response, biochemical, fluorescence polarization (AID 1964).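 Note: purified POS-1 fused to maltose binding protein made in E. coli; potency of compounds blocking POS-1 binding to fluorescent RNA.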

The target of another assay is Paired box protein Pax-8 (Homo sapiens, UniProt Q06710). Briefly: inhibitors of PAX8-driven TPO luciferase reporter, dose response, RMG-I cells, cherry-pick (AID 687027).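 Note: luciferase reporter driven by Pax8 target thyroperoxidase promoter measured by SteadyGlo luminescence.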 Type of assay: functional, cell-based. In general terms: In a reporter assay the amount or activity of a reporter protein is the signal.
In a further assay the test system is HEK293. Kind of assay: NOD2 signaling inhibitors in MDP-stimulated cells, cell-based, uHTS, luminescence (AID 2001). Type of assay: functional. The settings on record: Homo sapiens.

The source made the active and inactive calls. Where only a bound is given, the exact number is not on record here.

Usually IC50 stands for the concentration that gives 50% inhibition. As a reminder, the EC50 is the concentration giving half of the maximal effect. The term AC50 denotes the midpoint of the concentration-response curve, whichever way the signal moves.

Sequence of Paired box protein Pax-8 (Q06710 whole entry): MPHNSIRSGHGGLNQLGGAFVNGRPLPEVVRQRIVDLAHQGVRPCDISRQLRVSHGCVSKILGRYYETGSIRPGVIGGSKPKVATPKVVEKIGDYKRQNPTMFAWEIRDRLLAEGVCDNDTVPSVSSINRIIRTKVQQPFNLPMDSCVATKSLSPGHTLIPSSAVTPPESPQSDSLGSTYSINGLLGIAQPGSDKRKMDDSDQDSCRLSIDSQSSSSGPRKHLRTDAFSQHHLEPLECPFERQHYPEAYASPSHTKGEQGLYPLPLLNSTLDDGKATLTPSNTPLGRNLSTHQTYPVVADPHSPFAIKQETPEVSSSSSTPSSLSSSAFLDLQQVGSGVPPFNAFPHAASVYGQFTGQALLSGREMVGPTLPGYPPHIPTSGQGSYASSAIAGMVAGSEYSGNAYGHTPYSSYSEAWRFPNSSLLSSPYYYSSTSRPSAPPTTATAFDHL

For `COc1ccc(CNC(=O)c2c(C)oc3c2C(=O)c2ccccc2C3=O)cc1`, the IC50 in assay [1] was 21.5 µM (inactive). For the same compound, the EC50 in assay [2] is 20.1 µM (active).
As to `CC(C)c1ccc(S(=O)(=O)/N=C2\C=C(NS(=O)(=O)c3ccccc3)C(=O)c3ccccc32)cc1`, in assay [3], the AC50 was 4 µM (active). Also, the EC50 in assay [4] was 7.5 µM (active).
For `O=[N+]([O-])c1ccc(/C=N/n2cnc3ccccc32)s1`, the EC50 is 5.46 µM (active) in assay [5] and > 300 µM (inconclusive) in assay [6].
For the compound `CCSc1nsc(NC(=O)Nc2cccc(F)c2)n1`, the AC50 at Paired box protein Pax-8 was 5.73 µM (active). For the same compound, the IC50 with HEK293 is 3.82 µM (inactive).
